Source: US8013156B2 (Exelixis, Inc., priority 2003, dated 2011)

Each molecule was assayed against Tie-2 (Homo sapiens, UniProt Q02763) (assay: Tie-2 tyrosine kinase activity assay (luciferase/luciferin ATP consumption with pEY substrate, or 33P-ATP incorporation)). Conditions: human enzyme Tie-2.
Format: biochemical
Description: One measure of inhibition is Ki. […] The Ki for a compound is determined from the IC50 based on three assumptions. First, only one compound molecule binds to the enzyme and there is no cooperativity. […] Third, the enzymatic rate of the enzyme-inhibitor complex is zero. The rate data (i.e. compound concentration) are fitted to the equation:
[formula] where V is the observed rate, Vmax, is the rate of the free enzyme, I0 is the inhibitor concentration, E0 is the enzyme concentration, and Kd is the dissociation constant of the enzyme-inhibitor complex.
Tyrosine kinase activity is determined by 1) measurement of kinase-dependent ATP consumption by in the presence of a generic substrate such as […], tyrosine (pEY), by luciferase/luciferin-mediated chemiluminescence or; 2) incorporation of radioactive phosphate derived from ^33P-ATP into a generic substrate which has been adsorbed onto the well surface of polystyrene microtiter plates. Phosphorylated substrate products are quantified by scintillation spectrometry.
Inhibition is indicated as IC50 with following key: A=IC50 less than 50 nM, B=IC50 greater than 50 nM, but less than or equal to 1000 nM, C=IC50 greater than 1000 nM, but less than 10,000 nM, D=IC50 10,000 nM or greater, and “-”=no data available. The abbreviation for human enzyme, Tie-2, is defined as tyrosine kinase with immunoglobulin and EGF repeats.

Sequence of Tie-2 (Q02763 23-1124): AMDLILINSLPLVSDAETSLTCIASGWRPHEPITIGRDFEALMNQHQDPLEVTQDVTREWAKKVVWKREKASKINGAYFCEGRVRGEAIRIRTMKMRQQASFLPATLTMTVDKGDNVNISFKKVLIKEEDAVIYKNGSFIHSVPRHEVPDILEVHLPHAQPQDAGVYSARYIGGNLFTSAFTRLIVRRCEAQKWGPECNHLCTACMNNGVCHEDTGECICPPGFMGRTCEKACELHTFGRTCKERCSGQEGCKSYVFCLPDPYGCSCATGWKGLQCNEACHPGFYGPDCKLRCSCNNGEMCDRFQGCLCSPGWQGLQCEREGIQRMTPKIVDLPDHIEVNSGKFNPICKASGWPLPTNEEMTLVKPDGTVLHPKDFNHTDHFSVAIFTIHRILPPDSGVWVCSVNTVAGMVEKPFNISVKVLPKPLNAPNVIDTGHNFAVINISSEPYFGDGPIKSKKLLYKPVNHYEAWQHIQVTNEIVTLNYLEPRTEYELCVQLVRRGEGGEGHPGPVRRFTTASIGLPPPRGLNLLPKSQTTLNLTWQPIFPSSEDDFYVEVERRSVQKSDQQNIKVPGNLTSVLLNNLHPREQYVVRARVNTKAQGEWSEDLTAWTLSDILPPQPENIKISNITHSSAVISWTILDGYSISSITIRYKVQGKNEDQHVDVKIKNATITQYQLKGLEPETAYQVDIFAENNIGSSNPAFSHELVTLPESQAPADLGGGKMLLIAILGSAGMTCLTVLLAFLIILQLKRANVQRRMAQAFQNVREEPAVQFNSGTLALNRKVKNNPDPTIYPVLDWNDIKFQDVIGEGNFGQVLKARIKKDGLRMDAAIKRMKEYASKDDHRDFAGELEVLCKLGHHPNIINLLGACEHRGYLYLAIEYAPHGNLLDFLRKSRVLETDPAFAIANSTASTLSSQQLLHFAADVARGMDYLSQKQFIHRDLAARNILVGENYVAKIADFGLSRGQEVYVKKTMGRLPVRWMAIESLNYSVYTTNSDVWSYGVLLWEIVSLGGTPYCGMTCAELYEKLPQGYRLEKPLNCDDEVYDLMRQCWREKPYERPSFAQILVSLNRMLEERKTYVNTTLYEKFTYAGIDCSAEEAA

C[C@H]1CN(c2nccnc2OCc2ccncc2)CCN1C(=O)Nc1cccc(C(F)(F)F)c1 [Example 81, (2S)-2-methyl-4-{3-[(pyridin-4-ylmethyl)oxy]pyrazin-2-yl}-N-[3-(trifluoromethyl)phenyl]piperazine-1-carboxamide] and CCc1cccc(NC(=O)N2CCN(c3nccnc3OCc3ccncc3)CC2C)c1 (stereo not shown) [Example 93, N-(3-ethylphenyl)-2-methyl-4-{3-[(pyridin-4-ylmethyl)oxy]pyrazin-2-yl}piperazine-1-carboxamide] cannot be ordered by IC50: under 50 nM for the first, under 50 nM for the second.

O=C(Nc1cc(C(F)(F)F)cc(C(F)(F)F)c1)N1CCN(c2nsnc2OCc2ccnc(F)c2)CC1 [Example 82, N-[3,5-bis(trifluoromethyl)phenyl]-4-(4-{[(2-fluoropyridin-4-yl)methyl]oxy}-1,2,5-thiadiazol-3-yl)piperazine-1-carboxamide] and O=C(Nc1cc(C(F)(F)F)cc(C(F)(F)F)c1)N1CCN(c2nsnc2OCc2ccnc(Cl)c2)CC1 [Example 83, N-[3,5-bis(trifluoromethyl)phenyl]-4-(4-{[(2-chloropyridin-4-yl)methyl]oxy}-1,2,5-thiadiazol-3-yl)piperazine-1-carboxamide] fall in the same range of IC50: 1000 to 10000 nM for the first, 1000 to 10000 nM for the second.

O=C(Nc1cc(C(F)(F)F)cc(C(F)(F)F)c1)N1CCN(c2nccnc2OCc2ccnc(Cl)c2)CC1 [Example 84, N-[3,5-bis(trifluoromethyl)phenyl]-4-(3-{[(2-chloropyridin-4-yl)methyl]oxy}pyrazin-2-yl)piperazine-1-carboxamide] and O=C(Nc1cc(C(F)(F)F)cc(C(F)(F)F)c1)N1CCN(c2nccnc2OCc2ccnc(F)c2)CC1 [Example 89, N-[3,5-bis(trifluoromethyl)phenyl]-4-(3-{[(2-fluoropyridin-4-yl)methyl]oxy}pyrazin-2-yl)piperazine-1-carboxamide] fall in the same range of IC50: 50 to 1000 nM for the first, 50 to 1000 nM for the second.

First: O=C(Nc1cc(C(F)(F)F)cc(C(F)(F)F)c1)N1CCN(c2nsnc2OCc2ccnc(Br)c2)CC1 [Example 87, N-[3,5-bis(trifluoromethyl)phenyl]-4-(4-{[(2-bromopyridin-4-yl)methyl]oxy}-1,2,5-thiadiazol-3-yl)piperazine-1-carboxamide]
Second: Nc1cc(COc2nsnc2N2CCN(C(=O)Nc3cc(C(F)(F)F)cc(C(F)(F)F)c3)CC2)ccn1 [Example 99, 4-(4-{[(2-aminopyridin-4-yl)methyl]oxy}-1,2,5-thiadiazol-3-yl)-N-[3,5-bis(trifluoromethyl)phenyl]piperazine-1-carboxamide]
The IC50 of the first is higher: 1000 to 10000 nM for the first, under 50 nM for the second.

N#Cc1nc(OCc2ccncc2)c(N2CCN(C(=O)Nc3cc(C(F)(F)F)cc(C(F)(F)F)c3)CC2)nc1C#N [Example 90, N-[3,5-bis(trifluoromethyl)phenyl]-4-{5,6-dicyano-3-[(pyridin-4-ylmethyl)oxy]pyrazin-2-yl}piperazine-1-carboxamide] and N#Cc1nc(OCc2ccncc2)c(N2CCN(C(=O)Nc3cccc(C(F)(F)F)c3)CC2)nc1C#N [Example 91, 4-{5,6-dicyano-3-[(pyridin-4-ylmethyl)oxy]pyrazin-2-yl}-N-[3-(trifluoromethyl)phenyl]piperazine-1-carboxamide] fall in the same range of IC50: 50 to 1000 nM for the first, 50 to 1000 nM for the second.

First: CCc1cccc(NC(=O)N2CCN(c3nccnc3OCc3ccncc3)CC2)c1 [Example 92, N-(3-ethylphenyl)-4-{3-[(pyridin-4-ylmethyl)oxy]pyrazin-2-yl}piperazine-1-carboxamide]
Second: CCc1cccc(NC(=O)N2C(C)CN(c3nccnc3OCc3ccncc3)CC2C)c1 (stereo not shown) [Example 94, N-(3-ethylphenyl)-2,6-dimethyl-4-{3-[(pyridin-4-ylmethyl)oxy]pyrazin-2-yl}piperazine-1-carboxamide]
The IC50 of the first is lower: under 50 nM for the first, 50 to 1000 nM for the second.

CCc1cccc(NC(=O)N2CCN(c3nc4ccccc4nc3OCc3ccncc3)CC2C)c1 (stereo not shown) [Example 95, N-(3-ethylphenyl)-2-methyl-4-{3-[(pyridin-4-ylmethyl)oxy]quinoxalin-2-yl}piperazine-1-carboxamide] and O=C(Nc1cccc(Cl)c1)N1CCN(c2ncccc2OCc2ccncc2)CC1 [Example 105, N-(3-chlorophenyl)-4-{3-[(pyridin-4-ylmethyl)oxy]pyridin-2-yl}piperazine-1-carboxamide] fall in the same range of IC50: 50 to 1000 nM for the first, 50 to 1000 nM for the second.

First: O=C(Nc1cc(C(F)(F)F)cc(C(F)(F)F)c1)N1CCN(c2nccnc2CCc2ccncc2)CC1 [Example 96, N-[3,5-bis(trifluoromethyl)phenyl]-4-[3-(2-pyridin-4-ylethyl)pyrazin-2-yl]piperazine-1-carboxamide]
Second: O=C(Nc1cc(C(F)(F)F)cc(C(F)(F)F)c1)N1CCN(c2ncccc2OCc2ccncc2)CC1 [Example 97, N-[3,5-bis(trifluoromethyl)phenyl]-4-{3-[(pyridin-4-ylmethyl)oxy]pyridin-2-yl}piperazine-1-carboxamide]
The IC50 of the first is higher: 50 to 1000 nM for the first, under 50 nM for the second.

CC(C)(C)OC(=O)Nc1cc(COc2nsnc2N2CCN(C(=O)Nc3cc(C(F)(F)F)cc(C(F)(F)F)c3)CC2)ccn1 [Example 100, 1,1-dimethylethyl {4-[({4-[4-({[3,5-bis(trifluoromethyl)phenyl]amino}carbonyl)piperazin-1-yl]-1,2,5-thiadiazol-3-yl}oxy)methyl]pyridin-2-yl}carbamate] and COC(=O)Nc1cc(COc2nsnc2N2CCN(C(=O)Nc3cc(C(F)(F)F)cc(C(F)(F)F)c3)CC2)ccn1 [Example 101, methyl {4-[({4-[4-({[3,5-bis(trifluoromethyl)phenyl]amino}carbonyl)piperazin-1-yl]-1,2,5-thiadiazol-3-yl}oxy)methyl]pyridin-2-yl}carbamate] cannot be ordered by IC50: under 50 nM for the first, under 50 nM for the second.

Nc1cc(COc2nsnc2N2CCNCC2)ccn1 [Example 102, 4-{[(4-piperazin-1-yl-1,2,5-thiadiazol-3-yl)oxy]methyl}pyridin-2-amine] and CNc1cc(COc2nsnc2N2CCNCC2)ccn1 [Example 109, N-methyl-4-{[(4-piperazin-1-yl-1,2,5-thiadiazol-3-yl)oxy]methyl}pyridin-2-amine] cannot be ordered by IC50: at least 10000 nM for the first, at least 10000 nM for the second.

First: O=C(Nc1ccc(Cl)cc1)N1CCN(c2ncccc2OCc2ccncc2)CC1 [Example 103, N-(4-chlorophenyl)-4-{3-[(pyridin-4-ylmethyl)oxy]pyridin-2-yl}piperazine-1-carboxamide]
Second: CCCNc1cc(COc2nsnc2N2CCN(C(=O)Nc3cc(C(F)(F)F)cc(C(F)(F)F)c3)CC2)ccn1 [Example 107, N-[3,5-bis(trifluoromethyl)phenyl]-4-[4-({[2-(propylamino)pyridin-4-yl]methyl}oxy)-1,2,5-thiadiazol-3-yl]piperazine-1-carboxamide]
The IC50 of the first is higher: at least 10000 nM for the first, 50 to 1000 nM for the second.

Nc1nccc(COc2nsnc2N2CCN(C(=O)Nc3cc(C(F)(F)F)cc(C(F)(F)F)c3)CC2)n1 [Example 104, 4-(4-{[(2-aminopyrimidin-4-yl)methyl]oxy}-1,2,5-thiadiazol-3-yl)-N-[3,5-bis(trifluoromethyl)phenyl]piperazine-1-carboxamide] and CNc1nccc(COc2nsnc2N2CCN(C(=O)Nc3cc(C(F)(F)F)cc(C(F)(F)F)c3)CC2)n1 [Example 108, N-[3,5-bis(trifluoromethyl)phenyl]-4-[4-({[2-(methylamino)pyrimidin-4-yl]methyl}oxy)-1,2,5-thiadiazol-3-yl]piperazine-1-carboxamide] cannot be ordered by IC50: under 50 nM for the first, under 50 nM for the second.

CCCNc1cc(COc2nsnc2N2CCNCC2)ccn1 [Example 106, 4-{[(4-piperazin-1-yl-1,2,5-thiadiazol-3-yl)oxy]methyl}-N-propylpyridin-2-amine] showed an IC50 of at least 10000 nM.
